{
  "source": "patent US11685716B2",
  "about": "“Plant growth inhibiting agent, and plant growth inhibiting method using same” (NATIONAL UNIVERSITY CORPORATION KUMAMOTO UNIVERSITY, priority 2017, dated 2023)",
  "key": {"E. coli (DH5a strain)": {"tested_on": "E. coli (DH5a strain)", "test": "E. coli growth inhibiting activity (Evaluation 5)", "format": "cell-based", "procedure": "The compound (6a) or the compound (7) (final concentration 10 μM or 100 μM), 50% ethanol (final concentration 0.05% or 0.5%), or ampicillin (final concentration 50 μg/ml) was added to LB medium in which E. coli (DH5a strain) was added to carry out shaking culture at 37° C. One, 2, 4, and 6 hours after the culture was started, turbidity (OD600) of the culture medium was measured with a spectrophotometer to analyze the affect of the compound (6a) or the compound (7), 50% ethanol, ampicillin on the growth of E. coli cells.\nIn addition, ampicillin was used as a control of the compound which inhibits the growth."}, "thale cress": {"tested_on": "thale cress", "test": "Activities on plants: growth of thale cress on agar medium (Evaluation 1, 6)", "format": "in vivo, thale cress (Col-0, wild-type strain)", "conditions": "for plant growth inhibition effect (activity on plant growth) / twisting of root epidermal cells / abnormality in direction of root growth: thale cress Col-0, agar medium, 7 days; for twisting of root epidermal cells / abnormality in direction of root growth: scanned images", "procedure": "The test compound (compound (6a)) and DMSO for a control experiment, were added at this stage and blended. Fifty ml each of the medium was dispensed in sterile No. 2 square petri dishes (Eiken Chemical Co., Ltd.) to prepare agar medium. As a plant material, Col-0, which is a wild-type strain of […] used. Seeds, after their surfaces were sterilized, were planted on the agar medium, and vernalized at 4° C. for 16 hours. Growth of the plant was carried out in a growth chamber (SANYO MLR-351) under the conditions of an illuminance of 3 at 23° C. with constant light. The agar medium was allowed to stand upright in the chamber to grow the plant for 7 days. Lids of the petri dishes used for the test were opened, the test results were recorded with a scanner, and with the scanned images, […]"}, "HeLa cell [1]": {"tested_on": "HeLa cell", "test": "Cytotoxicity on human cultured cancer cells, relative survival rate (Evaluation 7)", "format": "cell-based", "conditions": "control", "procedure": "HeLa cells were cultured in a 96-well plate using Dulbecco's Modified Eagle's Medium (DHEM) under the culture conditions of 5% carbon dioxide and at 37° C. The compound (8b) (final concentration 50 μM), the compound (8f) (final concentration 50 μM), DMSO (final concentration 0.25%), Actinomycin D (final concentration 5 μg/ml) or Nocodazole (final concentration 100 ng/ml) was added 0 (48-hr compound treated sample), 12 (36-hr compound treated sample), 24 (24-hr compound treated sample), 36 (12-hr compound treated sample), and 48 (0-hr compound treated sample) hours after the culture was started. All of the samples were measured for living cell counts 48 hours after the culture was started with a cell counting kit (DOJINDO LABORATORIES), and a measured value of each-time compound treated-sample was divided by the measured value of 0-time compound treated sample to calculate a relative survival rate.\nIn addition, a transcription inhibitor Actinomycin D and a tubulin polymerization inhibitor Nocodazole were used as controls of the compounds which had cytotoxicity (induces apoptosis). DMSO is a solvent in which the compound (8b) or the compound (8f) was dissolved, and used as a control to observe the affect of the solvent on the cells."}, "HeLa cell [2]": {"tested_on": "HeLa cell", "test": "Cell proliferation inhibiting activity on human cultured cancer cells (Evaluation 2)", "format": "cell-based", "conditions": "32 hours; for effect on growth rate of HeLa cells (living cell counts): final concentration 200 μM", "procedure": "Every 8 hours after the culture was started, living cell counts were measured with a cell counting kit (DOJINDO LABORATORIES). In addition, staurosporine was used as a control of the compound which inhibits the cell proliferation."}, "[3]": {"tested_on": "Schizosaccharomyces pombe (wild-type strain 972)", "test": "Growth inhibiting activity on Schizosaccharomyces pombe (Evaluation 3)", "format": "cell-based", "conditions": "final concentration 100 μM, up to 30 hours", "procedure": "The compound (6a) or the compound (7) (final concentration 100 μM) or 50% ethanol (final concentration 0.5%) was added to YE medium in which Schizosaccharomyces pombe (wild-type strain 972) was inoculated to carry out shaking culture at 30° C. Six, 12, 18, 24, and 30 hours after the culture was started, turbidity (OD600) of the culture medium was measured with a spectrophotometer to analyze the affect of the compound (6a) or the compound (7), or 50% ethanol on the growth of the Schizosaccharomyces pombe cells."}, "[4]": {"tested_on": "Saccharomyces cerevisiae (BY4741 strain)", "test": "Growth inhibiting activity on Saccharomyces cerevisiae (Evaluation 4)", "format": "cell-based", "conditions": "final concentration 10 μM or 100 μM, up to 24 hours", "procedure": "The compound (6a) or the compound (7) (final concentration 10 μM or 100 μM), or 50% ethanol (final concentration 0.05% or 0.5%) was added to YPD medium in which Saccharomyces cerevisiae (BY4741 strain) was inoculated to carry out shaking culture at 30° C. Four, 8, 16, and 24 hours after the culture was started, turbidity (OD600) of the culture medium was measured with a spectrophotometer to analyze the affect of the compound (6a) or the compound (7), or 50% ethanol on the growth of the […] cells."}, "[5]": {"conditions": "thale cress Col-0, concentration of 1000 μM"}, "[6]": {"conditions": "final concentration 10 μM or 100 μM, up to 6 hours"}},
  "note": "*1 amine or outer side, *2 acyl side, *3 side chain or, on linkers, in order; H or OH if unused. Where a SMILES comes first, the peptide text is derived from it. Bridges are numbered along the chain shown (N, C = ends). Roman numbers before positions name the chains, in order. [ ]: non-standard residue; d: D form. Actinocin(9to1) = Cc1c2oc3c(C)ccc(C(=O)[*:1])c3nc-2c(C(=O)[*:2])c(N)c1=O; NMeV = CN[C@H](C(=O)O)C(C)C; Sar = CNCC(=O)O",
  "data": [
    {"smiles": "CC1(C)S[C@@H]2[C@H](NC(=O)[C@H](N)c3ccccc3)C(=O)N2[C@H]1C(=O)O", "note": "[ampicillin, reference compound]", "values": [
      {"measurement": "E. coli growth (OD600)", "setting": "E. coli (DH5a strain); final concentration 50 μg/ml, control", "value": "growth inhibition was observed"}
    ]},
    {"smiles": "CC(C)On1cccc1C(=O)O", "note": "[Compound 6e, 1-Isopropoxy-1H-pyrrole-2-carboxylic acid]", "values": [
      {"measurement": "germination", "setting": "thale cress; [5]", "value": "No germinations were observed"}
    ]},
    {"smiles": "CCCCOn1cccc1C(=O)O", "note": "[Compound 6f, 1-Butoxy-1H-pyrrole-2-carboxylic acid]", "values": [
      {"measurement": "germination", "setting": "thale cress; thale cress Col-0, concentration of 500 μM", "value": "substantially no germination was observed"},
      {"measurement": "germination", "setting": "thale cress; [5]", "value": "no germination was observed"}
    ]},
    {"smiles": "O=C(O)c1cccn1OCc1ccccc1", "note": "[Compound 6g, 1-(Benzyloxy)-1H-pyrrole-2-carboxylic acid]", "values": [
      {"measurement": "plant growth inhibition effect (activity on plant growth)", "setting": "thale cress", "value": "a plant growth inhibiting effect was observed even more than when each of the compounds (6d) to (6f)"}
    ]},
    {"smiles": "C#CC(C)(C)NC(=O)c1cc(Cl)cc(Cl)c1", "note": "[Propyzamide, reference compound]", "values": [
      {"measurement": "twisting of root epidermal cells / abnormality in direction of root growth", "setting": "thale cress", "value": "abnormality in a direction of the root growth was also observed"}
    ]},
    {"smiles": "COC(=O)Nc1nc2ccc(C(=O)c3cccs3)cc2[nH]1", "note": "[Nocodazole]", "values": [
      {"measurement": "viability of HeLa cells (relative survival rate)", "setting": "HeLa cell [1]; final concentration 100 ng/ml", "value": "induced apoptosis"}
    ]},
    {"smiles": "Cc1c2oc3c(C)ccc(C(=O)N[C@@H]4C(=O)N[C@H](C(C)C)C(=O)N5CCC[C@H]5C(=O)N(C)CC(=O)N(C)[C@@H](C(C)C)C(=O)O[C@@H]4C)c3nc-2c(C(=O)N[C@@H]2C(=O)N[C@H](C(C)C)C(=O)N3CCC[C@H]3C(=O)N(C)CC(=O)N(C)[C@@H](C(C)C)C(=O)O[C@@H]2C)c(N)c1=O", "note": "[Actinomycin D] (I: T[dV]P[Sar][NMeV] / II: T[dV]P[Sar][NMeV]; ester I:1-I:C, II:1-II:C; linker I:N-II:N via Actinocin(9to1))", "values": [
      {"measurement": "viability of HeLa cells (relative survival rate)", "setting": "HeLa cell [1]; final concentration 5 μg/ml", "value": "induced apoptosis"}
    ]},
    {"smiles": "O=C(O)c1cccn1O", "note": "[Compound 6c, 1-Hydroxy-1H-pyrrole-2-carboxylic acid]", "values": [
      {"measurement": "plant growth inhibition effect (activity on plant growth)", "setting": "thale cress", "value": "no activity was observed"}
    ]},
    {"smiles": "CCCOn1cccc1C(=O)O", "note": "[Compound 6d, 1-Propoxy-1H-pyrrole-2-carboxylic acid]", "values": [
      {"measurement": "germination", "setting": "thale cress; [5]", "value": "No germinations were observed"}
    ]},
    {"smiles": "CCOn1cccc1C(=O)O", "note": "[Compound 6b, 1-Ethoxy-1H-pyrrole-2-carboxylic acid]", "values": [
      {"measurement": "twisting of root epidermal cells / abnormality in direction of root growth", "setting": "thale cress", "value": "epidermal cells of the roots were twisted leftward and abnormality in a direction of the root growth was observed"}
    ]},
    {"smiles": "CN[C@@H]1C[C@H]2O[C@@](C)([C@@H]1OC)n1c3ccccc3c3c4c(c5c6ccccc6n2c5c31)C(=O)NC4", "note": "[staurosporine, reference compound]", "values": [
      {"measurement": "effect on HeLa cells (living cell counts)", "setting": "HeLa cell [2]; final concentration 1 μM, control", "value": "induced the apoptosis"}
    ]},
    {"smiles": "COn1cccc1C(=O)O", "note": "[Compound 6a, 1-Methoxy-1H-pyrrole-2-carboxylic acid]", "values": [
      {"measurement": "plant growth inhibition effect (activity on plant growth)", "setting": "thale cress", "value": "plant growth inhibition was significantly observed"},
      {"measurement": "twisting of root epidermal cells / abnormality in direction of root growth", "setting": "thale cress", "value": "epidermal cells of the roots were twisted leftward and abnormality in a direction of root growth was observed"},
      {"measurement": "root epidermal cells, observation by stereomicroscope", "setting": "thale cress; thale cress Col-0, compound added, FIG. 2", "value": "epidermal cells of the roots were observed to have been twisted leftward"},
      {"measurement": "effect on growth rate of HeLa cells (living cell counts)", "setting": "HeLa cell [2]", "value": "no affect at all"},
      {"measurement": "growth of Schizosaccharomyces pombe (OD600)", "setting": "[3]", "value": "neither the compound (6a) nor the compound (7) inhibits the growth"},
      {"measurement": "growth of Saccharomyces cerevisiae (OD600)", "setting": "[4]", "value": "neither the compound (6a) nor the compound (7) inhibits the growth"},
      {"measurement": "E. coli growth (OD600)", "setting": "E. coli (DH5a strain); [6]", "value": "neither the compound (6a) nor the compound (7) inhibits the E. coli growth"}
    ]},
    {"smiles": "COn1cccc1C(N)=O", "note": "[Compound 7, 1-Methoxy-1H-pyrrole-2-carboxamide]", "values": [
      {"measurement": "twisting of root epidermal cells / abnormality in direction of root growth", "setting": "thale cress", "value": "epidermal cells of the roots were twisted leftward and abnormality in a direction of the root growth was observed"},
      {"measurement": "effect on growth rate of HeLa cells (living cell counts)", "setting": "HeLa cell [2]", "value": "no affect at all"},
      {"measurement": "growth of Schizosaccharomyces pombe (OD600)", "setting": "[3]", "value": "neither the compound (6a) nor the compound (7) inhibits the growth"},
      {"measurement": "growth of Saccharomyces cerevisiae (OD600)", "setting": "[4]", "value": "neither the compound (6a) nor the compound (7) inhibits the growth"},
      {"measurement": "E. coli growth (OD600)", "setting": "E. coli (DH5a strain); [6]", "value": "neither the compound (6a) nor the compound (7) inhibits the E. coli growth"}
    ]}
  ]
}
